Key:
PDE4 = assay: Inhibition of PDE4 activity (method of Bauer and Schwabe, adapted to microtiter plates); assay type: biochemical; details: inhibitory concentration as −log IC50 (mol/l)
Source text: The activity test can be carried out, for example, according to the method of Bauer and Schwabe. For this, the method is adapted to microfiter plates (Naunyn-Schmiedeberg's Arch. Pharmacol. 1980, 311, 193-198). The PDE reaction takes place in the first step here. In a second step, the resulting 5′-nucleotide is cleaved by a 5′-nucleotidase of the snake venom of Crotalus atrox to the uncharged nucleoside. In the third step, the nucleoside is separated from the remaining charged substrate on ion-exchange columns. The columns are eluted directly into minivials, into which 2 ml of scintillator fluid are additionally added for counting, using 2 ml of 30 mM ammonium formate (pH 6.0).
The inhibitory values determined for the compounds according to the invention [inhibitory concentration as −log IC50 (mol/l)] follow from the following Table A, in which the numbers of the compounds correspond to the numbers of the examples.

With `COc1ccc(NC(=O)c2cccc(C3=[N+]([O-])C4CCCCC4c4cc(OC)c(OC)cc43)c2)cc1` (single isomer, unassigned; (-)) [Compound 1, (−)-cis-8,9-Dimethoxy-6-[3-(4-methoxyphenylamido)phenyl]-1,2,3,4,4a,10b-hexahydrophenanthridine-5-N-oxide] the “−log IC50” value (PDE4) was 6.73 mol/l and the melting point was 229 to 230 °C.

— patent US6538005B2, “Phenanthridine-N-oxides with PDE-IV inhibiting activity” (ALTANA Pharma AG, priority 1999, dated 2003)
